Target: T1, Menin MLL 4-43 (Homo sapiens, UniProt O00255)
T1 sequence (O00255 1-610): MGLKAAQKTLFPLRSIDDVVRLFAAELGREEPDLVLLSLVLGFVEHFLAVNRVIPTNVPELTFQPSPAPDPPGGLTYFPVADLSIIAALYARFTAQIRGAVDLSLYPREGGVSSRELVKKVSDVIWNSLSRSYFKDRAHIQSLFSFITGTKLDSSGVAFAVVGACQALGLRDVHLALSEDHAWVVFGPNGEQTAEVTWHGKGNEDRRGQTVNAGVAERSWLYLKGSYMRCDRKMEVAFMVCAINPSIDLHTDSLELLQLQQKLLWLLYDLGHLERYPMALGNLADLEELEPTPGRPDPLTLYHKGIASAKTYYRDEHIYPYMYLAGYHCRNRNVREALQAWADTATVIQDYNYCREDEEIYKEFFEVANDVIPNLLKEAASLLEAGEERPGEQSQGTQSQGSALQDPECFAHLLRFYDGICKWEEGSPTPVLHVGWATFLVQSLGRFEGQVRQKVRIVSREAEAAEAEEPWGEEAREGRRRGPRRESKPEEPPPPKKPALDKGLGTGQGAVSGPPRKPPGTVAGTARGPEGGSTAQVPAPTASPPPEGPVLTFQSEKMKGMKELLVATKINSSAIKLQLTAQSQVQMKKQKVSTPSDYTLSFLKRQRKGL
Assay: Fluorescence polarization (FP) competition assay of the menin-MLL interaction
Assay type: binding
Conditions: fluorescence polarization assay; read-out: Menin MLL 4-43 IC50

| SMILES | IC50 [nM] |
| --- | --- |
| Cc1c(CN2CCC(Nc3ncnc4sc(CC(F)(F)F)cc34)CC2)ccc2c1cc(C#N)n2CCN1C[C@@H](C)N(S(C)(=O)=O)[C@H](C)C1 [Compound 48] | 50 to 250 |
| Cc1c(CN2CCC(Nc3ncnc4sc(CC(F)(F)F)cc34)CC2)ccc2c1cc(C#N)n2C[C@H](C)N1CCN(S(C)(=O)=O)[C@@H](C(N)=O)C1 [Compound 164] | 50 to 250 |
| Cc1c(CN2CCC(Nc3ncnc4sc(CC(F)(F)F)cc34)CC2)ccc2c1cc(C#N)n2C[C@H](C)N1C[C@@H](C)N(S(=O)(=O)CF)[C@@H](C)C1 [Compound 152] | 50 to 250 |
| Cc1c(CN2CCC(Nc3ncnc4sc(CC(F)(F)F)cc34)CC2)ccc2c1cc(C#N)n2C[C@@H](C)N1CCN(S(C)(=O)=O)[C@H](C)C1 [Compound 20] | < 50 |
| CNc1nc(NC2CCN(Cc3ccc4c(cc(C#N)n4CCN4CCC(S(C)(=O)=O)CC4)c3C)CC2)c2cc(CC(F)(F)F)sc2n1 [Compound 1020] | < 50 |
| Cc1c(CN2CCC(Nc3ncnc4sc(CC(F)(F)F)cc34)CC2)ccc2c1cc(C#N)n2CC(C)N1CCN(S(C)(=O)=O)[C@H](C)C1 (stereo partly shown) [Compound 14] | < 50 |
| CNC(=O)C1CCN(C(C)Cn2c(C#N)cc3c(C)c(CN4CCC(Nc5ncnc6sc(CC(F)(F)F)cc56)CC4)ccc32)CC1 (stereo not shown) [Compound 84] | 50 to 250 |
| Cc1c(CN2CCC(Nc3ncnc4sc(CC(F)(F)F)cc34)CC2)ccc2c1cc(C#N)n2C[C@H](C)N1CCC(NP(C)(C)=O)CC1 [Compound 157] | 20 to 1000 |
| CNc1nc(NC2CCN(Cc3cc4cc(C#N)n(C[C@H](C)N5CCN(S(C)(=O)=O)CC5)c4cc3O)CC2)c2cc(CC(F)(F)F)sc2n1 [Compound 194] | < 50 |
| CNc1nc(NC2CCN(Cc3ccc4c(cc(C#N)n4CC(C)c4ccc(=O)[nH]c4)c3C)CC2)c2cc(CC(F)(F)F)sc2n1 (stereo not shown) [Compound 229] | < 50 |
| CNc1nc(NC2CCN(Cc3ccc4c(cc(C#N)n4C[C@H](C)N4CCNC(=O)C4)c3C)CC2)c2cc(CC(F)(F)F)sc2n1 [Compound 244] | < 50 |
| Cc1c(CN2CCC(Nc3ncnc4sc(CC(F)(F)F)cc34)CC2)ccc2c1cc(C#N)n2CCN1C(C)CN(S(C)(=O)=O)CC1C (stereo not shown) [Compound 47] | > 1000 |
| C=CC(=O)N(C)c1ccc(CCn2c(C#N)cc3c(C)c(CN4CCC(Nc5ncnc6sc(CC(F)(F)F)cc56)CC4)ccc32)cc1 [Compound 1010] | > 1000 |
| Cc1c(CN2CCC(Nc3ncnc4sc(CC(F)(F)F)cc34)CC2)ccc2c1cc(C#N)n2CC(C)(C)N1CCN(S(C)(=O)=O)CC1 [Compound 16] | > 1000 |
| CNc1nc(NC2CCN(Cc3ccc4c(cc(C#N)n4C[C@H](C)N4C5CCC4CN(S(C)(=O)=O)C5)c3C)CC2)c2cc(CC(F)(F)F)sc2n1 [Compound 282] | < 50 |
| Cc1c(CN2CCC(Nc3ncnc4sc(CC(F)(F)F)cc34)CC2)ccc2c1cc(C#N)n2CCN1C[C@@H](C)N(S(C)(=O)=O)[C@@H](C)C1 [Compound 46] | 50 to 250 |
| Cc1c(CN2CCC(Nc3ncnc4sc(CC(F)(F)F)cc34)CC2)ccc2c1cc(C#N)n2CC(=O)N1CCN(S(C)(=O)=O)CC1 [Compound 35, 4-methyl-1-(2-(4-(methylsulfonyl)piperazin-1-yl)-2-oxoethyl)-5-((4-((6-(2,2,2-trifluoroethyl)thieno[2,3-d]pyrimidin-4-yl)amino)piperidin-1-yl)methyl)-1H-indole-2-carbonitrile] | > 1000 |
| Cc1c(CN2CCC(Nc3ncnc4sc(CC(F)(F)F)cc34)CC2)ccc2c1cc(C#N)n2CC(C)N1C[C@@H](C)N(S(=O)(=O)CF)[C@H](C)C1 (stereo partly shown) [Compound 124] | 50 to 250 |

Next, values leading:

| IC50 [nM] | SMILES |
| --- | --- |
| 50 to 250 | Cc1c(CN2CCC(Nc3ncnc4sc(CC(F)(F)F)cc34)CC2)ccc2c1cc(C#N)n2C[C@H](C)N1CCN(C(=O)C2CC2)CC1 [Compound 117] |
| 50 to 250 | Cc1c(CN2CCC(Nc3ncnc4sc(CC(F)(F)F)cc34)CC2)ccc2c1cc(C#N)n2CC(C)N1CCN(S(N)(=O)=O)CC1 (stereo not shown) [Compound 7] |
| 50 to 250 | Cc1c(CN2CCC(Nc3nc(N)nc4sc(CC(F)(F)F)cc34)CC2)ccc2c1cc(C#N)n2C[C@H](C)N1CCOCC1 [Compound 188] |
| < 50 | Cc1nc(NC2CCN(Cc3ccc4c(cc(C#N)n4C[C@H](C)N4CCS(=O)(=O)CC4)c3C)CC2)c2cc(CC(F)(F)F)sc2n1 [Compound 219] |
| 50 to 250 | Cc1c(CN2CCC(Nc3ncnc4sc(CC(F)(F)F)cc34)CC2)ccc2c1cc(C#N)n2C[C@H](C)N1CCN(S(=O)(=O)CCF)CC1 [Compound 69] |
| 20 to 1000 | Cc1nc(NC2CCN(Cc3ccc4c(cc(C#N)n4C[C@@H](C)N4CCN(S(C)(=O)=O)CC4)c3C)CC2)c2cc(CC(F)(F)F)sc2n1 [Compound 201] |
| < 50 | CNc1nc(NC2CCN(Cc3ccc4c(cc(C#N)n4C[C@H](C)N4CCC(S(C)(=O)=O)CC4)c3C)CC2)c2cc(CC(F)(F)F)sc2n1 [Compound 193] |
| < 50 | Cc1c(CN2CCC(Nc3nc(N)nc4sc(CC(F)(F)F)cc34)CC2)ccc2c1cc(C#N)n2C[C@H](C)N1CCN(S(=O)(=O)C2CC2)CC1 [Compound 147] |
| < 50 | CNc1nc(NC2CCN(Cc3ccc4c(cc(C#N)n4C[C@H](C)N4CCN(S(=O)(=O)CC(C)C)CC4)c3C)CC2)c2cc(CC(F)(F)F)sc2n1 [Compound 248] |
| < 50 | CNS(=O)(=O)N1CCN(C(C)Cn2c(C#N)cc3c(C)c(CN4CCC(Nc5ncnc6sc(CC(F)(F)F)cc56)CC4)ccc32)CC1 (stereo not shown) [Compound 8] |
| > 1000 | Cc1c(CN2CCC(Nc3nc(N(C)C)nc4sc(CC(F)(F)F)cc34)CC2)ccc2c1cc(C#N)n2C[C@H](C)N1CCN(S(C)(=O)=O)CC1 [Compound 170] |
| 50 to 250 | Cc1nc(NC2CCN(Cc3ccc4c(cc(C#N)n4CCN4CCN(S(C)(=O)=O)CC4)c3C)CC2)c2cc(CC(F)(F)F)sc2n1 [Compound 1023] |
| 50 to 250 | Cc1c(CN2CCC(Nc3ncnc4sc(CC(F)(F)F)cc34)CC2)ccc2c1cc(C#N)n2C[C@H](C)N1CCN(S(=O)(=O)N2CCC2)CC1 [Compound 121] |
| 50 to 250 | COC(=O)N1CCN([C@@H](C)Cn2c(C#N)cc3c(C)c(CN4CCC(Nc5ncnc6sc(CC(F)(F)F)cc56)CC4)ccc32)CC1 [Compound 72] |
| 50 to 250 | Cc1c(CN2CCC(Nc3nc(N)nc4sc(CC(F)(F)F)cc34)CC2)ccc2c1cc(C#N)n2C[C@H](C)N1CCC(F)(F)CC1 [Compound 168] |
| < 50 | Cc1c(CN2CCC(Nc3nc(CO)nc4sc(CC(F)(F)F)cc34)CC2)ccc2c1cc(C#N)n2C[C@H](C)N1CCN(S(C)(=O)=O)CC1 [Compound 246] |
| < 50 | Cc1c(CN2CCC(Nc3ncnc4sc(CC(F)(F)F)cc34)CC2)ccc2c1cc(C#N)n2C[C@H](C)N1CCN(C=O)CC1 [Compound 65] |
| 50 to 250 | CCS(=O)(=O)N1CCN(C(C)Cn2c(C#N)cc3c(C)c(CN4CCC(Nc5ncnc6sc(CC(F)(F)F)cc56)CC4)ccc32)CC1 (stereo not shown) [Compound 4] |
| 50 to 250 | Cc1c(CN2CCC(Nc3ncnc4sc(CC(F)(F)F)cc34)CC2)ccc2c1cc(C#N)n2C[C@H](C)N1CCN(S(=O)(=O)CC(C)C)CC1 [Compound 116] |
| 50 to 250 | CC(=O)N1CCN(C(C)Cn2c(C#N)cc3c(C)c(CN4CCC(Nc5ncnc6sc(CC(F)(F)F)cc56)CC4)ccc32)CC1 (stereo not shown) [Compound 5] |
| < 50 | Cc1c(CN2CCC(Nc3ncnc4sc(CC(F)(F)F)cc34)CC2)ccc2c1cc(C#N)n2C[C@H](C)N1CCN(S(=O)(=O)N(C)C)CC1 [Compound 89] |
| < 50 | Cc1c(CN2CCC(Nc3nc(N)nc4sc(CC(F)(F)F)cc34)CC2)ccc2c1cc(C#N)n2C[C@H](C)N1CCN(C=O)CC1 [Compound 134] |

Source: patent publication US11673898B2, “Substituted inhibitors of menin-MLL and methods of use” (Kura Oncology, Inc., priority 2016, dated 2023)
